Test results published in patent publication US20250059175A1, “Mutant Pi3k-Alpha Inhibitors And Their Use As Pharmaceuticals” (Prelude Therapeutics Incorporated, priority 2023, published 2025).

Assays:
[1] = tested on: phosphorylation of AKT on Ser473 (PI3K pathway) in T-47D (heterozygous PIK3CA H1047R) cell line; experiment: PI3K pathway activation assay (pAKT Ser473 HTRF), T-47D cells; type: cell-based; details: T-47D (heterozygous PIK3CA H1047R) cells, two hours of treatment, pAKT Ser473 HTRF; for IC50: Homo sapiens, T47D, 2 h, read-out: T47D pAKT IC50
Description: (§1) The inhibitory activity of the compounds of the disclosure was evaluated by measuring phosphorylation of AKT on Ser473 as a readout of the PI3K pathway using HTRF (CisBio catalog number: 64AKSPE). These studies were conducted in the T-47D (heterozygous PIK3CA H1047R) and SKBR3 (PIK3CA WT) cell lines. Cells were maintained in a 37° C. incubator at 5% CO2 in the following media: T-47D: RPMI 1640, ATCC© Modification (Gibco, A10491-01) supplemented with 10% v/v FBS (Gibco, 26140-079), 1% penicillin streptomycin (Gibco, 15140-122), and 7.4 ug/mL insulin (MilliporeSigma, I9278); SKBR3: McCoy's 5a (Modified) Medium (Gibco, 16600-082) supplemented with 10% v/v FBS (Gibco, 26140-079). Cells were seeded in 384-well plates at a density of 4,000 cells/well. Compounds dissolved in DMSO were added using a digital dispense (D300E, Tecan) 10-point serial dilution. After two hours of treatment, cells were lysed for thirty minutes and then incubated with detection reagents per HTRF kit material and manufacturer's instructions. Fluorescence signal was measured with a multimode plate reader (Envision 2105, Perkin Elmer). Fluorescent signal was normalized to background and DMSO controls to obtain percent inhibition/activity for each compound.

[2] = tested on: phosphorylation of AKT on Ser473 (PI3K pathway) in SKBR3 (PIK3CA WT) cell line; experiment: PI3K pathway activation assay (pAKT Ser473 HTRF), SKBR3 cells; type: cell-based; details: Homo sapiens, SK-BR-3, 2 h, two hours of treatment
Description: as §1

Cc1cc([C@@H](C)Nc2ccc(Cl)nc2C(=O)O)nc(N2C(=O)OC[C@@H]2Cc2ccc(C#N)cc2F)c1 [Example 49, 6-Chloro-3-(((R)-1-(6-((S)-4-(4-cyano-2-fluorobenzyl)-2-oxooxazolidin-3-yl)-4-methylpyridin-2-yl)ethyl)amino)picolinic acid]
IC50 [1]: < 0.1 µM
IC50 [2]: > 10 µM

Cc1cc([C@@H](C)Nc2ccc(Cl)nc2C(=O)O)nc(N2C(=O)N(C)C[C@@H]2Cc2ccc(F)cc2)c1 [Example 58, 6-Chloro-3-(((R)-1-(6-((S)-5-(4-fluorobenzyl)-3-methyl-2-oxoimidazolidin-1-yl)-4-methylpyridin-2-yl)ethyl)amino)picolinic acid]
IC50 [1]: < 0.1 µM
IC50 [2]: > 10 µM

Cc1cc(C(C)Nc2ccc(Br)nc2C(=O)O)nc(N2C(=O)OC[C@@H]2Cc2ccccc2)c1 (single isomer, unassigned) [Example 18]
IC50 [1]: < 0.1 µM
IC50 [2]: > 10 µM

COc1ccc(C[C@H]2COC(=O)N2c2cc(C)cc([C@@H](C)Nc3ccc(Cl)nc3C(=O)O)n2)c(F)c1 [Example 27, 6-Chloro-3-(((R)-1-(6-((S)-4-(2-fluoro-4-methoxybenzyl)-2-oxooxazolidin-3-yl)-4-methylpyridin-2-yl)ethyl)amino)picolinic acid]
IC50 [1]: < 0.1 µM
IC50 [2]: > 10 µM

Cc1cc([C@@H](C)Nc2ccc(Cl)nc2C(=O)O)nc(N2C(=O)OC[C@@H]2Cc2cccc(C#N)c2)c1 [Example 48, 6-Chloro-3-(((R)-1-(6-((S)-4-(3-cyanobenzyl)-2-oxooxazolidin-3-yl)-4-methylpyridin-2-yl)ethyl)amino)picolinic acid]
IC50 [1]: < 0.1 µM
IC50 [2]: > 10 µM

Cc1cc([C@@H](C)Nc2ccc(Cl)nc2C(=O)O)nc(N2C(=O)OC[C@@H]2Cc2ccc(C(F)(F)F)cc2)c1 [Example 23, 6-Chloro-3-(((R)-1-(4-methyl-6-((S)-2-oxo-4-(4-(trifluoromethyl)benzyl)oxazolidin-3-yl)pyridin-2-yl)ethyl)amino)picolinic acid]
IC50 [1]: < 0.1 µM
IC50 [2]: > 10 µM

Cc1cc([C@@H](C)Nc2ccc(Cl)nc2C(=O)O)nc(N2C(=O)OC[C@@H]2Cc2ccc(F)cc2)c1 [Example 24, 6-Chloro-3-(((R)-1-(6-((S)-4-(4-fluorobenzyl)-2-oxooxazolidin-3-yl)-4-methylpyridin-2-yl)ethyl)amino)picolinic acid]
IC50 [1]: < 0.1 µM
IC50 [2]: > 10 µM

Cc1cc([C@@H](C)Nc2ccc(Cl)nc2C(=O)O)nc(N2C(=O)OC[C@@H]2Cc2cccc(C)c2F)c1 [Example 20, 6-Chloro-3-(((R)-1-(6-((S)-4-(2-fluoro-3-methylbenzyl)-2-oxooxazolidin-3-yl)-4-methylpyridin-2-yl)ethyl)amino)picolinic acid]
IC50 [1]: < 0.1 µM
IC50 [2]: > 10 µM

Cc1cc([C@@H](C)Nc2ccc(Cl)nc2C(=O)O)nc(N2C(=O)OC[C@@H]2Cc2ccc(F)cc2F)c1 [Example 26, 6-Chloro-3-(((R)-1-(6-((S)-4-(2,4-difluorobenzyl)-2-oxooxazolidin-3-yl)-4-methylpyridin-2-yl)ethyl)amino)picolinic acid]
IC50 [1]: < 0.1 µM
IC50 [2]: > 10 µM

COc1cc(C[C@H]2COC(=O)N2c2cc(C)cc([C@@H](C)Nc3ccc(Cl)nc3C(=O)O)n2)c(F)cn1 [Example 29, 6-Chloro-3-(((R)-1-(6-((S)-4-((5-fluoro-2-methoxypyridin-4-yl)methyl)-2-oxooxazolidin-3-yl)-4-methylpyridin-2-yl)ethyl)amino)picolinic acid]
IC50 [1]: < 0.1 µM
IC50 [2]: > 10 µM

Cc1cc(C(C)Nc2ccc(Cl)nc2C(=O)O)nc(N2C(=O)OC[C@@H]2Cc2ccccc2)c1 (single isomer, unassigned) [Example 12]
T47D pAKT IC50 [1]: ++ ++
IC50 [2]: 1 to 10 µM

Cc1cc(C(C)Nc2ccc(F)nc2C(=O)O)nc(N2C(=O)OC[C@@H]2Cc2ccccc2)c1 (single isomer, unassigned) [Example 11]
IC50 [1]: < 0.1 µM
IC50 [2]: > 10 µM
